Measurements published in PMC4170105 (Journal of nuclear medicine : official publication, Society …, 2013).
Read-outs that look alike come from different tables or passages of the source. Blank lines part the entries; values can stand above or below the compound they belong to.

How the values were obtained:
[1] = target: T1, S1Rs (Rattus norvegicus, UniProt Q9R0C9); assay: Rat brain PET/CT imaging, baseline and BD1047 blocking; assay type: in vivo; conditions: BD1047 1 mg/kg i.v. 10 min before tracer; 50–60 min after injection
[2] = system: 5-HT2 receptors; conditions: no reference given; cited from earlier work
[3] = system: S2Rs; conditions: no reference given, cited from earlier work
[4] = target: T1, S1Rs; assay: Blocking biodistribution in rats pretreated with S1R ligands; assay type: in vivo; conditions: pretreatment 1 mg/kg
[5] = target: S1Rs; conditions: cited from earlier work
[6] = Stability in human liver microsomes; assay type: in vitro ADME; conditions: errors SEM
[7] = cited from earlier work
[8] = target: T1, S1Rs; assay: Ex vivo autoradiography of rat brain and muscle sections; assay type: in vivo; conditions: baseline
[9] = monkey plasma
[10] = Ex vivo biodistribution in rats; conditions: rat
[11] = Ex vivo stability in rat plasma and brain homogenates
[12] = mouse liver microsomes; errors SEM; previously reported; cited from earlier work
[13] = system: S1Rs
[14] = 5 min after injection, i.v., n = 4

T1 sequence (Q9R0C9 whole entry): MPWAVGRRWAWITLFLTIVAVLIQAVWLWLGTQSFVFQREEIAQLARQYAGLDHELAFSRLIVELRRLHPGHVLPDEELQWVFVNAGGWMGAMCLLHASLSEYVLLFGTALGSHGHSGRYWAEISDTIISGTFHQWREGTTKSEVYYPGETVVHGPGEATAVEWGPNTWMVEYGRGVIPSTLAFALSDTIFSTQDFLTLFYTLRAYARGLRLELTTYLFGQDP

SMILES: CN(C)CCN(C)CCc1ccc(Cl)c(Cl)c1 [BD1047]
- reduction in ^18F-FTC-146 accumulation in rat brain (PET/CT) [1]: 86%
- affinity for 5-HT2 receptors [2]: low micromolar affinity
- fold lower affinity for S2Rs than for S1Rs [3]: approximately 50 fold
- Ki ([3]; read-out: Ki for S2Rs): 47000 pM
- radioactive signal in bone/skull of pretreated rats compared with baseline rats ([4]; 60 min after injection): did not display this same trend
- reduction in radiotracer binding in liver, pancreas, and heart ([4]; P < 0.05, < 0.05, < 0.005): significant reduction
- Ki ([5]; read-out: Ki for S1Rs, no reference given): 930 pM

- t1/2 [6]: 18.2 min
SMILES: O=c1sc2cc(CCCF)ccc2n1CCN1CCCCCC1 [FTC-146]

SMILES: COc1ccc(CCN2CCN(CCCc3ccccc3)CC2)cc1OC [^11C-SA4503]
- unchanged radioligand in monkey plasma ([7]; 90 min after injection): 31%

SMILES: COc1cc(CCN2CCN(CCCc3ccccc3)CC2)ccc1OCC[18F] [^18F-FE-SA4503]
- parent compound present in monkey plasma ([7]; 120 min after injection of tracer): 23%

SMILES: O=c1sc2cc(CCCF)ccc2n1CCN1CCCCCC1 [^18F-FTC-146]
- Ki ([5]; read-out: affinity for S1Rs, in vitro binding): 2.5 pM

SMILES: O=c1sc2cc(CCC[18F])ccc2n1CCN1CCCCCC1 [^18F-FTC-146]
- uptake in corpus callosum and muscle (autoradiography) [8]: little, if any, uptake
- intact ^18F-FTC-146 in plasma ([9]; 5 min): 60%
- intact ^18F-FTC-146 in plasma ([9]; 15 min): 35%
- intact parent tracer in plasma (lower plateau) ([9]; between 50 and 110 min): 15%
- time of peak uptake in the brain [10]: 15 min
- uptake in kidney [10, 14]: 2.14 ± 0.29 %ID/g
- uptake in lung [10, 14]: 4.91 ± 0.63 %ID/g
- uptake in pancreas [10, 14]: 1.58 ± 0.21 %ID/g
- uptake in spleen [10, 14]: 1.34 ± 0.35 %ID/g
- decrease of accumulation in the lungs ([10]; from 5 to 60 min after injection): 75%
- uptake in blood and muscle ([10]; throughout the duration of the study): Negligible uptake
- washout of radiotracer uptake in pancreas, liver, and spleen ([10]; throughout the study (5-60 min)): did not significantly wash out
- t1/2 [6]: 18.2 ± 3.6 min
- percentage intact radiotracer in plasma ([11]; 15 min after injection): 27.1% ± 5.3%
- percentage intact radiotracer in plasma ([11]; 30 min after injection): 25.3% ± 1.3%
- percentage intact radiotracer in plasma ([11]; 60 min after injection): 19.5% ± 4.4%
- t1/2 [12]: 4.2 ± 0.6 min
- average maximum uptake in all analyzed brain regions ([13]; monkey, in vivo, 0.25 h): approximately 0.4 %ID/g
- uptake in cerebellum ([13]; monkey, in vivo, 1 h): 0.27 %ID/g
- uptake in occipital cortex ([13]; monkey, in vivo, 1 h): 0.27 %ID/g
- uptake in striatum ([13]; monkey, in vivo, 1 h): 0.20 %ID/g
- brain uptake level after gradual washout ([13]; monkey, in vivo, 2 h): approximately 0.25 %ID/g

SMILES: O=C(CCCN1CCC(O)(c2ccc(Cl)cc2)CC1)c1ccc(F)cc1 [haloperidol, reference compound]
- decrease of ^18F-FTC-146 binding in occipital cortex ([13]; haloperidol 0.1 mg/kg 10 min before radioligand, 60–75 min after injection): 53%
